Where “and” joins values, the source holds several entries; their conditions need not be identical. Equal values may be shown once. Read-outs that look alike come from different tables or passages of the source.
Tests used:
CYP2C9 = biological target: T1, CYP2C9 (Homo sapiens, UniProt P11712); assay: CYP2C9 inhibition in human liver microsomes; assay type: in vitro ADME; conditions: ultrapooled human liver microsomes 0.2 mg/mL, 10 μM diclofenac, β-amanitin 0.1–100 μM, pH 7.4, 37 °C, 15 min, LC-MS/MS, n = 3, read-out: IC50, CYP2C9 diclofenac 4′-hydroxylase
T1 construct: from tissue; host or cells: ultrapooled human liver microsomes
T1 sequence (P11712 whole entry): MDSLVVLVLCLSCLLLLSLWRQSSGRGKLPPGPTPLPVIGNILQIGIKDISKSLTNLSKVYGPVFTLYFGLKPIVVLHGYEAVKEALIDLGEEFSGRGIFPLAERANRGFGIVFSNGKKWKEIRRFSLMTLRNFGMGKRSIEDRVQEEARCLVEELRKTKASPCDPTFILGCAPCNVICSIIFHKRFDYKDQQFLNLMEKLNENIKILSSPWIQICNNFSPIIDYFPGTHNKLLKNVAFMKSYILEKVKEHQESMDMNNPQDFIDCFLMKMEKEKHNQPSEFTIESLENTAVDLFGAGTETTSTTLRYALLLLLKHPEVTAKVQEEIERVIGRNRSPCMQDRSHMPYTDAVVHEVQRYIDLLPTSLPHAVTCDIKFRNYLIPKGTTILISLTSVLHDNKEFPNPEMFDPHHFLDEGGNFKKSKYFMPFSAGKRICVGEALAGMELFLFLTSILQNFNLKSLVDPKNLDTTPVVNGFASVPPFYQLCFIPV
Procedure: (§1) β-amanitin inhibition (IC50 values) of CYP1A2, CYP2A6, CYP2B6, CYP2C8, CYP2C9, CYP2C19, CYP2D6, and CYP3A4 enzyme activities in HLMs were evaluated using LC-MS/MS and CYP substrates as previously described. Each incubation mixture was made up to a volume of 100 μL including HLMs (0.2 mg/mL), 50 mM potassium phosphate buffer (pH 7.4), 1.0 mM NADPH, 10 mM magnesium chloride, various concentrations of β-amanitin (0.1–100 μM), a cocktail of seven CYP probe substrates (50 μM phenacetin for CYP1A2, 2.5 μM coumarin for CYP2A6, 2 μM amodiaquine for CYP2C8, 10 μM diclofenac for CYP2C9, 100 μM [S]-mephenytoin for CYP2C19, 5 μM bufuralol for CYP2D6, and 2.5 μM midazolam for CYP3A4 in acetonitrile), or 50 μM bupropion for CYP2B6. The reactions were initiated with NADPH followed by incubation in a shaking water bath at 37 °C for 15 min with or without 30 min preincubation with NADPH. Reactions were stopped with 50 μL of ice-cold methanol containing ^13C2, ^15N-acetaminophen and d9-1′-hydroxybufuralol (ISs). Incubation mixtures were centrifuged at 13,000× g for 8 min at 4 °C. An aliquot (5 μL) of the supernatant from the reaction mixture was analyzed by the previous LC-MS/MS method.

[1] = Toxicokinetics after intravenous injection in mice; assay type: in vivo; conditions: male ICR mice; for MRT / Vd / clearance / half-life / AUC(0-inf) / AUC(0-t) / C0: mouse, mean ± SD; for MRT: AUMC/AUC; for Vd: CLxMRT, read-out: Vss; for clearance: Dose/AUC; for half-life: plasma elimination half-life; for AUC(0-inf) / AUC(0-t) / C0: LC-HRMS, non-compartmental
Procedure: The Institutional Animal Care and Use Committee of the Catholic University of Korea (approval number, CUK-IACUC-2021-004; approval date, 21 March 2021) approved the study protocol. Male ICR mice (8 weeks of age, 27.4 ± 2.3 g) were purchased from Orient Bio Inc. (Seongnam, Korea). Mice were kept in plastic cages with unlimited access to a standard mouse diet (Orient Bio) and water before the experiments. For oral administration, mice were fasted for at least 12 h but allowed free access to water.
β-amanitin was dissolved in water and administered by iv bolus injection into the tail vein of mice at doses of 0.2 (n = 8), 0.4 (n = 6), and 0.8 (n = 7) mg/kg. Blood samples (approximately 15 μL) were collected from the retro-orbital plexus under light anesthesia with isoflurane at 0.033, 0.083, 0.25, 0.5, 0.75, 1, 1.5, 2, 3, 4, 6, and 8 h after drug administration.
Concentrations of β-amanitin in biological samples were evaluated following our previous methodology. The standard calibration curves for β-amanitin in mouse plasma ranged from 0.5 to 500 ng/mL and were linear, with a correlation coefficient of 0.9952. The inter- and intra-day accuracy and precision fell within the acceptance criteria (3.1–14.6% of coefficients of variation (CVs) and 92.5–115.0% of accuracy). The extraction recovery and matrix effect of this analytical method were 82.8–88.9% and 93.0–98.6%.
An aliquot (5 μL) of plasma sample was mixed with 15 μL of 4′-hydroxydiclofenac (internal standard (IS), 5 ng/mL) in methanol and vortexed for 2 min. The mixture was centrifuged at 13,000× g at 4 °C for 5 min, and the supernatant was then transferred to an autosampler vial. An aliquot (5 μL) was injected into the LC-HRMS system for analysis.
The toxicokinetic parameters of β-amanitin were analyzed by non-compartmental analyses (WinNonlin, Pharsight; Mountain View, CA, USA) (Table 1). Data were expressed as mean ± standard deviations (SD). Comparisons of data between groups were performed using one-way ANOVA or Student t-test. Values of p < 0.05 were considered statistically significant.

CYP1A2 = biological target: T2, CYP1A2 (Homo sapiens, UniProt P05177); assay: CYP1A2 inhibition in human liver microsomes; assay type: in vitro ADME; conditions: ultrapooled human liver microsomes 0.2 mg/mL, 50 μM phenacetin, β-amanitin 0.1–100 μM, pH 7.4, 37 °C, 15 min, LC-MS/MS, n = 3, read-out: IC50, CYP1A2 phenacetin O-deethylase
T2 construct: from tissue; host or cells: ultrapooled human liver microsomes
T2 sequence (P05177 1-516): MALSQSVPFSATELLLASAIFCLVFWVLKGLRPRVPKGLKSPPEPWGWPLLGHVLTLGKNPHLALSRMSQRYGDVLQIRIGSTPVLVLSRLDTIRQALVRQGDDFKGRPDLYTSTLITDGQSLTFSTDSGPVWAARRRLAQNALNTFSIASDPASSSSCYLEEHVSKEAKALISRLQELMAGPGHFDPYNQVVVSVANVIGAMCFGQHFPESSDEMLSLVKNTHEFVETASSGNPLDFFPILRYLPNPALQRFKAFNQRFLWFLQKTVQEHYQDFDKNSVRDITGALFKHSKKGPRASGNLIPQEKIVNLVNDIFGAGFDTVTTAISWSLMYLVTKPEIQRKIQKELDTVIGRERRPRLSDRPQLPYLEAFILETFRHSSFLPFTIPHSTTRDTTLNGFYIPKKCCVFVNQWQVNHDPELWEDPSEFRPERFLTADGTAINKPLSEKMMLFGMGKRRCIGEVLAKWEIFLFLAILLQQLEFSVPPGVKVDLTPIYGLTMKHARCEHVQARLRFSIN
Procedure: as §1

CYP3A4 = biological target: T3, CYP3A4 (Homo sapiens, UniProt P08684); assay: CYP3A4 inhibition in human liver microsomes; assay type: in vitro ADME; conditions: ultrapooled human liver microsomes 0.2 mg/mL, 2.5 μM midazolam, β-amanitin 0.1–100 μM, pH 7.4, 37 °C, 15 min, LC-MS/MS, n = 3, read-out: IC50, CYP3A4 midazolam 1′-hydroxylase
T3 construct: from tissue; host or cells: ultrapooled human liver microsomes
T3 sequence (P08684 whole entry): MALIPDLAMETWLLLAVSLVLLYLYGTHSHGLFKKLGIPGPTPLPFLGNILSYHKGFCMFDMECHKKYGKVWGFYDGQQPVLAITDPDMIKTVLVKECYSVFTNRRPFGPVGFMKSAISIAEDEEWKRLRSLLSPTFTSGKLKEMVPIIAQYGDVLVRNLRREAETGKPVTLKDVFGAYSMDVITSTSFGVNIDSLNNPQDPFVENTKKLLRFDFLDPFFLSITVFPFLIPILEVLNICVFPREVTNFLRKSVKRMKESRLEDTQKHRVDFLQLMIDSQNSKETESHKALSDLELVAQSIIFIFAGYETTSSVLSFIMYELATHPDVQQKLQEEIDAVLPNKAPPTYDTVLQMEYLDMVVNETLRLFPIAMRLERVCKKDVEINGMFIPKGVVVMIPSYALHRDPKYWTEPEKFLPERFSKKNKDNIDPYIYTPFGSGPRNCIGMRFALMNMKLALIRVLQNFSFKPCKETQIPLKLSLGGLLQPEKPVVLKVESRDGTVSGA
Procedure: as §1

[2] = with 30 min NADPH preincubation
[3] = plasma, iv bolus 0.2 mg/kg, n = 8
[4] = plasma, iv bolus 0.4 mg/kg, n = 6
[5] = plasma, iv bolus 0.8 mg/kg, n = 7
[6] = iv bolus 0.2 mg/kg, plasma, n = 8
[7] = iv bolus 0.4 mg/kg, plasma, n = 6
[8] = iv bolus 0.8 mg/kg, plasma, n = 7

Question: With CC[C@H](C)[C@@H]1NC(=O)CNC(=O)[C@@H]2Cc3c([nH]c4cc(O)ccc34)[S@+]([O-])C[C@H](NC(=O)CNC1=O)C(=O)N[C@@H](CC(=O)O)C(=O)N1C[C@H](O)C[C@H]1C(=O)N[C@@H]([C@@H](C)[C@@H](O)CO)C(=O)N2 [β-amanitin] as the compound, how does the IC50 (CYP2C9; [2]) read?
Answer: > 100 µM

Question: And the IC50 (CYP2C9; without NADPH preincubation)?
Answer: > 100 µM

Question: And the “t1/2, range over the iv doses” value ([1]; iv 0.2, 0.4 and 0.8 mg/kg, plasma, range of the dose-group means)?
Answer: 18.3–33.6 min and 18.3~33.6 min

Question: What about the MRT [1, 3] of the same compound?
Answer: 22.8 min

Question: What about the Vd [1, 3] of the same compound?
Answer: 0.359 ± 0.0855 L/kg

Question: And the clearance [1, 3]?
Answer: 0.918 ± 0.15 L/h/kg

Question: And the MRT [1, 4]?
Answer: 22.4 min

Question: What about the Vd [1, 4] of the same compound?
Answer: 0.366 ± 0.061 L/kg

Question: And the clearance [1, 4]?
Answer: 0.972 ± 0.144 L/h/kg

Question: What about the MRT [1, 5] of the same compound?
Answer: 20.7 min

Question: What about the Vd [1, 5] of the same compound?
Answer: 0.39 ± 0.0771 L/kg

Question: What about the clearance [1, 5] of the same compound?
Answer: 1.13 ± 0.36 L/h/kg

Question: What about the half-life ([1]; iv bolus 0.2 mg/kg, n = 8) of the same compound?
Answer: 21.8 ± 8.3 min

Question: What about the AUC(0-inf) [1, 6] of the same compound?
Answer: 0.223 µg·h/mL

Question: And the AUC(0-t) [1, 6]?
Answer: 0.222 µg·h/mL

Question: And the half-life ([1]; iv bolus 0.4 mg/kg, n = 6)?
Answer: 18.3 ± 3.1 min

Question: What about the AUC(0-inf) [1, 7] of the same compound?
Answer: 0.421 µg·h/mL

Question: And the AUC(0-t) [1, 7]?
Answer: 0.42 µg·h/mL

Question: And the half-life ([1]; iv bolus 0.8 mg/kg, n = 7)?
Answer: 33.6 ± 22.4 min

Question: And the AUC(0-inf) [1, 8]?
Answer: 0.771 µg·h/mL

Question: What about the AUC(0-t) [1, 8] of the same compound?
Answer: 0.769 µg·h/mL

Question: What about the C0 ([1]; iv bolus (tail vein) 0.2 mg/kg in water, plasma, n = 8) of the same compound?
Answer: 0.712 ± 0.182 µg/mL

Question: What about the C0 ([1]; iv bolus (tail vein) 0.4 mg/kg in water, plasma, n = 6) of the same compound?
Answer: 1.44 ± 0.324 µg/mL

Question: What about the C0 ([1]; iv bolus (tail vein) 0.8 mg/kg in water, plasma, n = 7) of the same compound?
Answer: 3.25 ± 0.904 µg/mL

Question: What about the IC50 (CYP1A2; [2]) of the same compound?
Answer: > 100 µM

Question: And the IC50 (CYP1A2; without NADPH preincubation)?
Answer: > 100 µM

Question: And the IC50 (CYP3A4; [2])?
Answer: > 100 µM

Question: And the IC50 (CYP3A4; without NADPH preincubation)?
Answer: > 100 µM

Reference: publication PMC9030691, “Toxicokinetics of β-Amanitin in Mice and In Vitro Drug–Drug Interaction Potential” (Pharmaceutics, 2022)
